Our source for the GI50 and TGI values is PubChem BioAssay (NCI).

Values joined by “and” are separate entries in the source; they are usually repeats but may differ in a detail not shown here. Identical values can stand only once.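 Five concentrations, 48 hours, 96-well plates. GI50 marks 50% less growth. TGI marks complete inhibition of growth.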

Test systems include HCC-2998 colon; HCT-116 colon; HL-60(TB) leukemia; LOX IMVI melanoma; MDA-MB-435; OVCAR-4 ovarian; SF-295 CNS; SN12C renal; U251 CNS; UO-31 renal.
Test in all cases: growth of human tumour cells (NCI), 48 h

For `Cc1ccc2c(C3C(C#N)=C(N)Oc4cc5ccccc5cc43)cc(=O)oc2c1` (configuration not stated), the GI50 in the experiment with HCC-2998 colon was 3.91 µM; with HCT-116 colon, 0.531 µM; in the experiment on HL-60(TB) leukemia it was 0.424 µM; in the experiment on LOX IMVI melanoma, 3.17 µM; with MDA-MB-435, 0.286 µM; with OVCAR-4 ovarian, 11.4 µM. The GI50 is 0.533 µM with SF-295 CNS, 5.27 µM in the experiment with SN12C renal, 2.28 µM in the experiment with U251 CNS and 7.68 µM with UO-31 renal. For the same compound, the TGI in the experiment on HCC-2998 colon is 58.6 µM; in the experiment with HCT-116 colon it was 32.8 µM; in the experiment with HL-60(TB) leukemia it was 17 µM; in the experiment with LOX IMVI melanoma, greater than 100 µM; with MDA-MB-435 it was 1.07 µM; in the experiment on OVCAR-4 ovarian, greater than 100 µM. For the same compound, the TGI in the experiment on SF-295 CNS, in the experiment with SN12C renal, in the experiment with U251 CNS and in the experiment with UO-31 renal was greater than 100 µM in each case.
`COC12C(COC(N)=O)C3=C(C(=O)C(C)=C(N)C3=O)N1CC1C2N1C` (configuration not stated): the TGI was determined as 16.7 µM with HCC-2998 colon; 32.1 µM with HCT-116 colon; 8.66 µM in the experiment on HL-60(TB) leukemia; 20.2 µM in the experiment on LOX IMVI melanoma; 28.1 µM with MDA-MB-435; 28.1 µM in the experiment with OVCAR-4 ovarian. Besides, the TGI in the experiment on SF-295 CNS was determined as 18.1 µM; with SN12C renal, 29.5 µM; in the experiment with U251 CNS, 22.6 µM; in the experiment on UO-31 renal it was 32.6 µM.
In the case of `O=C(NNc1ccccc1)C(=O)NNc1ccccc1`, the GI50 in the experiment with HCC-2998 colon is 2.96 µM; in the experiment with HCT-116 colon it was 6.42 µM; in the experiment on HL-60(TB) leukemia it was 0.627 µM; in the experiment with LOX IMVI melanoma it was 4.34 µM; with MDA-MB-435, 1.84 µM; in the experiment with OVCAR-4 ovarian, 1.83 µM. Moreover, the GI50 was 2.1 µM with SF-295 CNS, greater than 100 µM in the experiment with SN12C renal, greater than 100 µM in the experiment with U251 CNS and greater than 100 µM with UO-31 renal. Moreover, the TGI in the experiment with HCC-2998 colon is greater than 100 µM; in the experiment on HCT-116 colon, greater than 100 µM; in the experiment with HL-60(TB) leukemia, 5.28 µM; with LOX IMVI melanoma, greater than 100 µM; in the experiment on MDA-MB-435 it was greater than 100 µM; with OVCAR-4 ovarian, greater than 100 µM. Moreover, the TGI in the experiment on SF-295 CNS, in the experiment on SN12C renal, in the experiment with U251 CNS and with UO-31 renal was greater than 100 µM in each case.
For `C=COC(=O)N[C@H]1CCc2cc(OC)c(OC)c(OC)c2-c2ccc(SC)c(=O)cc21`, the TGI with HCC-2998 colon was 85.6 µM; in the experiment with HCT-116 colon, 0.74 µM; with HL-60(TB) leukemia it was less than 0.01 µM; in the experiment on LOX IMVI melanoma, greater than 95.8 µM; in the experiment with MDA-MB-435, less than 0.01 µM; with OVCAR-4 ovarian it was 92.9 µM. For the same compound, the TGI with SF-295 CNS was found to be 0.0769 µM; with SN12C renal, 54.7 µM; in the experiment on U251 CNS, 3.02 µM; in the experiment with UO-31 renal, 74.9 µM.
As for `C[C@@]12CCC[C@@](C)(C(=O)O)C1CC[C@]13CC(=O)[C@](CO)(C1)[C@@H](O)CC32` (some centres not stated), the GI50 in the experiment with HCC-2998 colon, in the experiment on HCT-116 colon, with HL-60(TB) leukemia, in the experiment on LOX IMVI melanoma, in the experiment with MDA-MB-435 and in the experiment on OVCAR-4 ovarian was greater than 100 µM throughout. The GI50 with SF-295 CNS, in the experiment on SN12C renal, in the experiment on U251 CNS and in the experiment with UO-31 renal was greater than 100 µM in each case. Besides, the TGI in the experiment on HCC-2998 colon, with HCT-116 colon, in the experiment with HL-60(TB) leukemia, in the experiment with LOX IMVI melanoma, in the experiment on MDA-MB-435 and in the experiment on OVCAR-4 ovarian was greater than 100 µM each time. Further, the TGI in the experiment with SF-295 CNS, in the experiment on SN12C renal, in the experiment with U251 CNS and in the experiment with UO-31 renal was greater than 100 µM throughout.
Regarding `COc1cc2c3c(c1OC)-c1cc4c(cc1CC3(C#N)N(C(=O)c1ccccc1)CC2)OCO4` (configuration not stated), the TGI was greater than 100 µM in the experiment with HCC-2998 colon; greater than 87.2 µM in the experiment with HCT-116 colon; greater than 100 µM in the experiment on HL-60(TB) leukemia; greater than 93.6 µM in the experiment with LOX IMVI melanoma; greater than 100 µM in the experiment on MDA-MB-435; 43 µM in the experiment with OVCAR-4 ovarian. The TGI in the experiment on SF-295 CNS was 58.7 µM; in the experiment on SN12C renal, greater than 100 µM; in the experiment on U251 CNS, 53.5 µM; in the experiment on UO-31 renal it was greater than 94.1 µM.
Consider `C/C(=N\NC(=S)N1CCCCCC1)c1ccccn1`, for which the GI50 in the experiment with HCC-2998 colon was 0.0374 µM; with MDA-MB-435, 0.0703 µM; with OVCAR-4 ovarian it was less than 0.0412 µM; in the experiment with SF-295 CNS, 0.0137 µM; in the experiment on SN12C renal, 0.0246 µM; in the experiment with U251 CNS, less than 0.0131 µM. Moreover, the GI50 in the experiment on UO-31 renal was 0.134 µM. Moreover, the TGI in the experiment on HCC-2998 colon is 2.03 µM and 1.35 µM; in the experiment on HCT-116 colon, 3.16 µM and 4.28 µM; with HL-60(TB) leukemia it was 0.185 µM; in the experiment on LOX IMVI melanoma, 4.37 µM and 1.37 µM; with MDA-MB-435, 3.92 µM and 1.17 µM; in the experiment on OVCAR-4 ovarian, 2.52 µM and 3.25 µM. Also, the TGI was 2.3 µM in the experiment with SF-295 CNS; 4.31 µM and 5.6 µM in the experiment with SN12C renal; 1.24 µM and 1.29 µM with U251 CNS; 4.01 µM and 4.33 µM in the experiment with UO-31 renal.
